“Also recorded” adds a separate entry of the source. Where two headings read alike, the source gives them in different places.
How the values were obtained:
fresh-cut cherimoya = conditions: L-cysteine 0.5% or 41.3 mM; 0° C.; cited from earlier work
fresh-cut fennel = conditions: L-cysteine 0.5% or 41.3 mM; 6 d at 5° C.; cited from earlier work
fresh-cut artichoke = conditions: L-cysteine 0.5% or 41.3 mM; cited from earlier work
PPO [1] = conditions: role: inhibitor; L-cysteine; cited from earlier work
PPO [2] = conditions: role: inhibitor; L-cysteine 1% or 82.5 mM; after 2 d and up to 8 d at 1° C.; cited from earlier work
PPO [3] = conditions: role: inhibitor; L-cysteine 1 to 5 mM; cited from earlier work
romaine lettuce midribs = assay: Pink rib discoloration of romaine midribs / whole leaflets dipped 1 min, stored at 10° C.; format: in vivo
Procedure: Pink rib discoloration in excised midrib segments of romaine lettuce was shown above. […] 4.3 mM of melatonin solution was prepared in water containing 0.5% DMSO (dimethyl sulfoxide), and control samples were treated with water containing 0.5% DMSO.
1 mM of melatonin solution was prepared in water containing 0.5% DMSO (dimethyl sulfoxide) and control samples were treated with water containing 0.5% DMSO.

cassava roots [4] = conditions: melatonin 0.1 mM, cited from earlier work
litchi fruit [5] = conditions: melatonin 0.4 mM, cited from earlier work
cassava roots [6] = conditions: cited from earlier work
peach fruit = conditions: cited from earlier work
litchi fruit [7] = conditions: cited from earlier work
PPO [8] = conditions: melatonin 0.4 mM; litchi pericarp; up to 6 d; cited from earlier work
pear flesh = conditions: melatonin 0.1 mM, cited from earlier work
PAL [9] = conditions: melatonin 0.1 mM; after 2 d at 4° C.; cited from earlier work
PPO [10] = conditions: melatonin 0.1 mM; after 2 d; cited from earlier work
PAL [11] = conditions: melatonin; 25 d storage at 4° C.; cited from earlier work
[12] = tested on: key enzymes in the melatonin biosynthesis pathway; conditions: strawberry; cited from earlier work
[13] = tested on: nonenzymatic antioxidants, such as phenolics, flavonoids, and anthocyanins; conditions: melatonin; cited from earlier work
[14] = melatonin, cassava root, vs untreated

N[C@@H](CS)C(=O)O [L-cysteine]
delay of pulp browning (fresh-cut cherimoya): up to 12 d | effect on browning of fennel (fresh-cut fennel): no effect; also recorded: ineffective | effect on browning of artichoke (fresh-cut artichoke): no effect; also recorded: developed browning or became yellow | PPO activity (PPO [1]): inhibited PPO activity | PPO activity (PPO [2]): significantly declined | PPO activity (PPO [3]): linear decline in PPO activity

COc1ccc2[nH]cc(CCNC(C)=O)c2c1 [melatonin]
pink rib discoloration vs control (romaine lettuce midribs; melatonin 1 mM in 0.5% DMSO, 4 days): less pink rib discoloration than control samples | pink rib discoloration vs control (romaine lettuce midribs; melatonin 4.3 mM in 0.5% DMSO, five days, whole leaflet): less pink rib discoloration than control samples | time to which vascular streaking disorder was delayed (cassava roots [4]; 28° C., untreated control 6 h): 12 h | delay of vascular streaking / discoloration (cassava roots [4]; vs untreated control): delayed development of discoloration; also recorded: delayed twice as long as untreated control slices | delay of pericarp browning (litchi fruit [5]; 25° C.): 4 days | discoloration of litchi pericarp (litchi fruit [5]; up to 6 d): significant decrease | key enzymes in the melatonin biosynthesis pathway (cassava roots [6]; cassava): Upregulation | antioxidant capacity (cassava roots [6]; [14]): increased | reactive oxygen species (ROS) levels (cassava roots [6]; [14]): declined | antioxidative enzymes that reduce hydrogen peroxide accumulation (cassava roots [6]; melatonin, cassava): activated | lipid peroxidation (peach fruit; melatonin 0.1 mM, via increased enzyme activity): inhibited lipid peroxidation | senescence (peach fruit; melatonin 0.1 mM): delayed senescence | total phenolics (peach fruit; melatonin 0.1 mM): maintained total phenolics | antioxidant capacity (peach fruit; melatonin, vs untreated): increased | reactive oxygen species (ROS) levels (peach fruit; melatonin, vs untreated): declined | increase in total phenolics (litchi fruit [7]; melatonin 0.4 mM, litchi pericarp, up to 6 d): approximately 40% | activity of several antioxidants (litchi fruit [7]; melatonin 0.4 mM, litchi): increased | free radical development (litchi fruit [7]; melatonin 0.4 mM, litchi): reduced | key enzymes in the melatonin biosynthesis pathway (litchi fruit [7]; melatonin, litchi): Upregulation | PPO activity (PPO [8]): significant decrease | total phenolic content (pear flesh; after 4 d at 4° C.): higher | inhibition of browning (pear flesh; pear flesh, 8 d at 4° C.): no inhibition of browning | PAL activity (PAL [9]): higher | PPO activity (PPO [10]): significantly lower | PAL activity (PAL [11]): increased | key enzymes in the melatonin biosynthesis pathway [12]: Upregulation | nonenzymatic antioxidants (phenolics, flavonoids, anthocyanins) [13]: enhances nonenzymatic antioxidants
